This is an account of results in patent US9833497B2, “Human originated EGF domain proteins and use of the same” (CHENGDU SOURCEBIO LIMITED-LIABILITY COMPANY, priority 2013, dated 2017).

Common to all, as to type: cell-based
One experiment deals with Proteus mirabilis. Briefly: MIC against Gram-negative bacteria: Proteus mirabilis. The following applies: 5×10^5 CFU/mL. In a few lines: (§1)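 Bacteria grown in LB at 37° C to McFarland 0.5, resuspended and seeded at 5×10^5 CFU/mL in 96-well plates. Purified human EGF-domain proteins two-fold serially diluted, triplicate wells; cultured at 37° C, shaking 175 rpm. MIC = lowest protein concentration with no growth.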

The test system of the next experiment is Enterobacter cloacae. Briefly: MIC against Gram-negative bacteria: Enterobacter cloacae. The following applies: 5×10^5 CFU/mL. In a few lines: as §1
The subject of another experiment is Moraxella catarrhalis. Briefly: MIC against Gram-negative bacteria: Moraxella catarrhalis. The settings on record: 5×10^5 CFU/mL. The essentials: as §1
The next experiment has as its system Proteus vulgaris. Briefly: MIC against Gram-negative bacteria: Proteus vulgaris. The settings on record: 5×10^5 CFU/mL. In a few lines: as §1
The next experiment has as its system Aeromonas hydrophila. Briefly: MIC against Gram-negative bacteria: Aeromonas hydrophila. The following applies: 5×10^5 CFU/mL. The essentials: as §1
The subject of another experiment is Citrobacter diversus. Briefly: MIC against Gram-negative bacteria: Citrobacter diversus. The following applies: 5×10^5 CFU/mL. In a few lines: as §1
The next experiment relates to E. coli DH5α. Briefly: Antibacterial activity: MIC and growth curve against E. coli DH5α in 96-well plate. The following applies: minimal inhibitory concentration against E. coli DH5α; 96-well plate, 5×10^5 CFU/mL, 37° C., judged after 8 h. In a few lines:
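MIC taken as lowest protein level with no bacterial growth, tracked by A600 every 30 min during 37 °C, 175 rpm culture. Two-fold protein series 50-12.5 μg/mL final, triplicate wells, against 5×10^5 CFU/mL of LB-washed mid-log cells.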

The test system of the next experiment is Pseudomonas aeruginosa. Briefly: MIC against Gram-negative bacteria: Pseudomonas aeruginosa. The following applies: 5×10^5 CFU/mL. The essentials:
as §1

The test system of the next experiment is E. coli BL21. Briefly: MIC against Gram-negative bacteria: E. coli BL21. The following applies: 5×10^5 CFU/mL. The essentials:
as §1

The subject of another experiment is Serratia marcescens. Briefly: MIC against Gram-negative bacteria: Serratia marcescens. The settings on record: 5×10^5 CFU/mL. The essentials: as §1
The test system of another experiment is Klebsiella pneumonia. Briefly: MIC against Gram-negative bacteria: Klebsiella pneumonia. The following applies: 5×10^5 CFU/mL. In a few lines:
as §1

The mark [1] stands for this setting: 10 h cultivation at 37° C., two-fold serial dilution.
Where [2] appears, read: E. coli BL21, 10 h cultivation at 37° C.

Usually MIC stands for the smallest concentration in the dilution series that meets the test's criterion for growth inhibition.

Regarding “PRT1128 (VANSCTPNPCENDGVCTDIGGDFRCRCPAGFIDKTCS; listed as Homo sapiens)”, the “MIC P. mirabilis” value against Proteus mirabilis (setting [1]) turned out to be 12.5 µg/mL. The “MIC E. cloacae” value against Enterobacter cloacae (setting [1]) came out at 12.5 µg/mL. Moreover, the “MIC M. catarrhalis” value in the experiment on Moraxella catarrhalis (setting [1]) was 50 µg/mL. Also, the “MIC P. vulgaris” value against Proteus vulgaris (setting [1]) came to 50 µg/mL. In addition, the “MIC A. hydrophila” value in the experiment with Aeromonas hydrophila (setting [1]) was 50 µg/mL. The “MIC C. diversus” value against Citrobacter diversus (setting [1]) was 12.5 µg/mL. The substance further came in with an MIC in the experiment with E. coli DH5α of 12.5 µg/mL. The “MIC P. aeruginosa” value against Pseudomonas aeruginosa (setting [1]) turned out to be 12.5 µg/mL. In the experiment on E. coli BL21 (setting [1]), the “MIC E. coli BL21” value was found to be 50 µg/mL. The “MIC S. marcescens” value in the experiment on Serratia marcescens (setting [1]) stood at 12.5 µg/mL. In addition, in the experiment on Klebsiella pneumonia (setting [1]), the “MIC K. pneumonia” value came to 50 µg/mL.
For “PRT771 (VQDLCSKTTCKNDGVCTVRDGKAECRCQSGEDWWYMGERCE; listed as Homo sapiens)”, in the experiment with Proteus mirabilis (P. mirabilis, 10 h cultivation at 37° C.), the “MIC (μg/mL) P. mirabilis” value amounted to 50 µg/mL. In the experiment on Enterobacter cloacae (E. cloacae, 10 h cultivation at 37° C.), the “MIC (μg/mL) E. cloacae” value was found to be 50 µg/mL. In addition, in the experiment on Moraxella catarrhalis (M. catarrhalis, 10 h cultivation at 37° C.), the “MIC (μg/mL) M. catarrhalis” value is 12.5 µg/mL. In addition, the “MIC (μg/mL) P. vulgaris” value with Proteus vulgaris (P. vulgaris, 10 h cultivation at 37° C.) is 12.5 µg/mL. In addition, the “MIC (μg/mL) A. hydrophila” value against Aeromonas hydrophila (A. hydrophila, 10 h cultivation at 37° C.) came to 12.5 µg/mL. The “MIC (μg/mL) C. diversus” value against Citrobacter diversus (C. diversus, 10 h cultivation at 37° C.) was determined as 50 µg/mL. For the same substance, the MIC against E. coli DH5α worked out at 25 µg/mL. Further, the “MIC (μg/mL) P. aeruginosa” value with Pseudomonas aeruginosa (P. aeruginosa, 10 h cultivation at 37° C.) was 50 µg/mL. Also, the “MIC (μg/mL) E. coli BL21” value in the experiment on E. coli BL21 (setting [2]) was determined as 12.5 µg/mL. The “MIC (μg/mL) S. marcescens” value with Serratia marcescens (S. marcescens, 10 h cultivation at 37° C.) was found to be 50 µg/mL. In addition, in the experiment with Klebsiella pneumonia (K. pneumonia, 10 h cultivation at 37° C.), the “MIC (μg/mL) K. pneumonia” value turned out to be 12.5 µg/mL.
With “PRT1378 (AIQTCPGDCRGRGECHDGSCVCKDGYAGEDCG; listed as Homo sapiens)”, the “MIC against P. mirabilis” value against Proteus mirabilis (Proteus mirabilis, 10 h cultivation at 37° C.) turned out to be 25 µg/mL. Moreover, in the experiment with Enterobacter cloacae (Enterobacter cloacae, 10 h cultivation at 37° C.), the “MIC against E. cloacae” value is 12.5 µg/mL. In the experiment on Moraxella catarrhalis (Moraxella catarrhalis, 10 h cultivation at 37° C.), the “MIC against M. catarrhalis” value came out at 12.5 µg/mL. Further, the “MIC against P. vulgaris” value against Proteus vulgaris (Proteus vulgaris, 10 h cultivation at 37° C.) came out at 12.5 µg/mL. For the same substance, in the experiment on Aeromonas hydrophila (Aeromonas hydrophila, 10 h cultivation at 37° C.), the “MIC against A. hydrophila” value stood at 12.5 µg/mL. The “MIC against C. diversus” value against Citrobacter diversus (Citrobacter diversus, 10 h cultivation at 37° C.) came out at 25 µg/mL. In the experiment on E. coli DH5α, this substance returned a minimum inhibitory concentration (MIC) of 50 µg/mL. The “MIC against P. aeruginosa” value in the experiment with Pseudomonas aeruginosa (Pseudomonas aeruginosa, 10 h cultivation at 37° C.) came out at 12.5 µg/mL. In addition, the “MIC against E. coli BL21” value in the experiment with E. coli BL21 (setting [2]) was determined as 25 µg/mL. Moreover, the “MIC against S. marcescens” value in the experiment with Serratia marcescens (Serratia marcescens, 10 h cultivation at 37° C.) amounted to 25 µg/mL. For the same substance, the “MIC against K. pneumonia” value in the experiment with Klebsiella pneumonia (Klebsiella pneumonia, 10 h cultivation at 37° C.) turned out to be 25 µg/mL.
Regarding “PRT63 (GCNFNNGGCHQDCFEGGDGSFLCGCRPGFRLLDDLVTCA; listed as Homo sapiens)”, in the experiment on Proteus mirabilis (Proteus mirabilis, 96-well plate, 37° C., 10 h), the “MIC (μg/mL) P. mirabilis” value came to 12.5 µg/mL. In addition, in the experiment on Enterobacter cloacae (Enterobacter cloacae, 96-well plate, 37° C., 10 h), the “MIC (μg/mL) E. cloacae” value was found to be 12.5 µg/mL. Further, the “MIC (μg/mL) M. catarrhalis” value against Moraxella catarrhalis (Moraxella catarrhalis, 96-well plate, 37° C., 10 h) came to 25 µg/mL. Besides, in the experiment with Proteus vulgaris (Proteus vulgaris, 96-well plate, 37° C., 10 h), the “MIC (μg/mL) P. vulgaris” value was 25 µg/mL. In addition, the “MIC (μg/mL) A. hydrophila” value in the experiment with Aeromonas hydrophila (Aeromonas hydrophila, 96-well plate, 37° C., 10 h) came to 25 µg/mL. For the same substance, the “MIC (μg/mL) C. diversus” value in the experiment on Citrobacter diversus (Citrobacter diversus, 96-well plate, 37° C., 10 h) came to 12.5 µg/mL. In the experiment on E. coli DH5α, this substance showed an MIC of 12.5 µg/mL. The “MIC (μg/mL) P. aeruginosa” value against Pseudomonas aeruginosa (Pseudomonas aeruginosa, 96-well plate, 37° C., 10 h) stood at 12.5 µg/mL. Moreover, the “MIC (μg/mL) E. coli BL21” value against E. coli BL21 (E. coli BL21, 96-well plate, 37° C., 10 h) was found to be 25 µg/mL. The “MIC (μg/mL) S. marcescens” value in the experiment with Serratia marcescens (Serratia marcescens, 96-well plate, 37° C., 10 h) came to 12.5 µg/mL. In the experiment with Klebsiella pneumonia (Klebsiella pneumonia, 96-well plate, 37° C., 10 h), the “MIC (μg/mL) K. pneumonia” value was 25 µg/mL.
As for “PRT637 (DIDECVNNTVCDSHGFCDNTAGSFRCLCYQGFQAPQDG; listed as Homo sapiens)”, the “MIC P. mirabilis” value with Proteus mirabilis (96-well plate, 37° C., 10 h) came out at 12.5 µg/mL. Also, the “MIC E. cloacae” value in the experiment on Enterobacter cloacae (96-well plate, 37° C., 10 h) was 12.5 µg/mL. Also, in the experiment on Moraxella catarrhalis (96-well plate, 37° C., 10 h), the “MIC M. catarrhalis” value is 25 µg/mL. Further, in the experiment with Proteus vulgaris (96-well plate, 37° C., 10 h), the “MIC P. vulgaris” value was 25 µg/mL. In addition, the “MIC A. hydrophila” value against Aeromonas hydrophila (96-well plate, 37° C., 10 h) came to 25 µg/mL. Also, in the experiment on Citrobacter diversus (96-well plate, 37° C., 10 h), the “MIC C. diversus” value came out at 50 µg/mL. The MIC against E. coli DH5α turned out to be 25 µg/mL. In addition, the “MIC P. aeruginosa” value against Pseudomonas aeruginosa (96-well plate, 37° C., 10 h) was found to be 25 µg/mL. The “MIC E. coli BL21” value against E. coli BL21 (96-well plate, 37° C., 10 h) worked out at 12.5 µg/mL. Besides, the “MIC S. marcescens” value against Serratia marcescens (96-well plate, 37° C., 10 h) was 50 µg/mL. Also, the “MIC K. pneumonia” value in the experiment with Klebsiella pneumonia (96-well plate, 37° C., 10 h) came out at 50 µg/mL.
